# Earlier results in patent publication US20090191287A1, “Mitigation of Inflammation-Related Injuries” (priority 2008, published 2009).
# Key:
# [1] = test system: high-risk coronary surgery patients; conditions: high-risk coronary surgery patients pretreated before operating; placebo 17%
# [2] = test system: myocardium at risk; conditions: allopurinol-pretreated dogs, left anterior descending artery ligated; control group 23%
# [3] = test system: heart infarct; conditions: dogs pretreated with allopurinol; control dogs 40%
smiles,measurement,setting,value
Oc1ncnc2[nH]ncc12 [allopurinol],mortality rate,[1],4%
same,myocardium at risk destroyed (myocardial necrosis),[2],9%
same,heart infarct size,[3],22%
